Data as given in ChEMBL document CHEMBL1201862, “PubChem BioAssay data set” (2004).
Activity calls are given as the source filed them.

Molecular target: FAD-linked sulfhydryl oxidase ALR (Homo sapiens, UniProt P55789)
Assay: ALR-catalysed DTT oxidation blockers – biochemical, H2O2 detection, luminescence, cherry-pick, dose response (AID 493248)
Details: not given

Sequence of FAD-linked sulfhydryl oxidase ALR (P55789 whole entry): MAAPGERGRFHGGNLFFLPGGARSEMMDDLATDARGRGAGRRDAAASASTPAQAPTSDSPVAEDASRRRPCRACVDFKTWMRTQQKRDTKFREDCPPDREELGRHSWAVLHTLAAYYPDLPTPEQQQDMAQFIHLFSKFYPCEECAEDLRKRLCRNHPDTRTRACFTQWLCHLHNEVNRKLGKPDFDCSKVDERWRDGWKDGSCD

SMILES	AC50
Cc1ccc2nc(C)cc(N/N=C/c3ccccc3O)c2c1	4.03 µM (active)
Oc1ccccc1-c1nnc(S)n1Cc1ccco1	4.75 µM (active)
CC1CCN(C(=S)c2ccc(N(C)C)cc2)CC1	0.915 µM (active)
CCN(CC)c1ccc(NC(=O)CN2CCN(c3nc(C)cc(C)n3)CC2)cc1	1.03 µM (active)

System: H4
Assay: Luminescence Cell-Based Dose Response HTS to Identify Activators of 5'UTR Stem-Loop Driven Prion Protein mRNA Translation in H4 Neuroglioblastoma Cells. [Related pubchem assays: 1829 (Project Summary), 1814 (Primary HTS)]
Format: functional
Details: Homo sapiens

SMILES	EC50
CC1(C)Cc2c(sc(NC(=O)Nc3ccccc3)c2C(N)=O)CO1	> 120 µM (not active)

Molecular target: T1, Heat shock factor protein 1 (Mus musculus, UniProt P38532)
T1 sequence (P38532 whole entry): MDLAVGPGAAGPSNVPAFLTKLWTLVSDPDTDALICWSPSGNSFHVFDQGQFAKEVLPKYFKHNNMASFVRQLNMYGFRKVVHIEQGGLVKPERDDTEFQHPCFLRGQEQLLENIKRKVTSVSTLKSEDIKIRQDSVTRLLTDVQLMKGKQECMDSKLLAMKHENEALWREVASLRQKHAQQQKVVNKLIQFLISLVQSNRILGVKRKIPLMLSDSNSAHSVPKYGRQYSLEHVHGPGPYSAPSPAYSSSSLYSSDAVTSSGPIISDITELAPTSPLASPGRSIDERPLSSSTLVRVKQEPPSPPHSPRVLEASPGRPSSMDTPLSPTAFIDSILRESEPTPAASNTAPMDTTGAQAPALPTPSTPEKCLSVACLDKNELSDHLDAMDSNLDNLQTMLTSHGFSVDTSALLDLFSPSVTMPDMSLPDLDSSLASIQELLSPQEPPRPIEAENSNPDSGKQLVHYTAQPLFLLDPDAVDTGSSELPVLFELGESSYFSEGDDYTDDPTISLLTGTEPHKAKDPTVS
Assay: decrease of HSF1-responsive luciferase luminescence – cell-based, NIH3T3, dose retest, confirmation (AID 2382);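 further: NIH3T3 fibroblasts with HSF1-driven luciferase reporter stressed by proteasome inhibitor MG132; luminescence from HSF1-driven luciferase expression after 8 hours of MG132 stress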
Format: functional
Details: not given

SMILES	EC50
Oc1ccccc1-c1nnc(-c2ccc(C(F)(F)F)cc2)o1	> 195 µM (not active)

Molecular target: Cytochrome P450 2D6 (Homo sapiens, UniProt P10635);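 further: CYP2D6 member of a cytochrome P450 panel assay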
Sequence (P10635 whole entry): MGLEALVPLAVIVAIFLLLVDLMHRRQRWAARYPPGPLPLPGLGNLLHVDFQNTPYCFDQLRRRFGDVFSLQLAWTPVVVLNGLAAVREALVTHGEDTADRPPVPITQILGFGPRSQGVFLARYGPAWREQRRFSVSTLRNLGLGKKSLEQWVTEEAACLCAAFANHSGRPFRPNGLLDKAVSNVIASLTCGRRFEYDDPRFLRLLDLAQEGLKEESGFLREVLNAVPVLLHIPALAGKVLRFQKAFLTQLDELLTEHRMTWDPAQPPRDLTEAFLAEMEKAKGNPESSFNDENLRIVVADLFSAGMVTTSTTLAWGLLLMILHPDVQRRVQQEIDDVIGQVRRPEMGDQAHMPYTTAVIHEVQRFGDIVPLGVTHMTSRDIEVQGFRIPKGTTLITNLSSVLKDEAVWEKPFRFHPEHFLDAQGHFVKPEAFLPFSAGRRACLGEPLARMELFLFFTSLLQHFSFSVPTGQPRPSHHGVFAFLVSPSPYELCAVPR
Details: not given

SMILES	AC50
O=C(Nc1cccc(C(F)(F)F)c1)C1CCCN1S(=O)(=O)c1cccc2cccnc12 (stereo not given)	31.6 µM (inconclusive)
COc1ccc(C2Nc3ccccc3C(=O)N2Cc2ccco2)cc1COc1ccc([N+](=O)[O-])cc1 (stereo not given)	3.98 µM (inconclusive)
O=C(c1ccc(F)cc1)C1CCN(CCn2c(=S)[nH]c3ccccc3c2=O)CC1 [ALTANSERIN]	10 µM (inconclusive)
CN1CCN(c2ncnc3ccc(-c4ccccc4Cl)cc23)CC1	25.1 µM (inconclusive)
CC(C)(C)c1ccc(CN(Cc2ccco2)Cc2nnnn2C2CCCC2)cc1	22.4 µM (inconclusive)
CCCNC(=O)N1N=C(c2ccc(N)cc2)c2cc3c(cc2[C@H]1C)OCO3	25.1 µM (inconclusive)
COc1cccc(NC(=O)COC(=O)c2nc3nccc(C)n3n2)c1	22.4 µM (inconclusive)
CN(C)CC/C=C1\c2ccccc2CSc2ccccc21 [DOTHIEPIN]	7.94 µM (inconclusive)
COc1cccc(Cn2c(=O)c(-c3cc(F)cc(F)c3)nc3cnc(N4CCNCC4)nc32)c1	39.8 µM (inconclusive)
Cc1ccc(/C=N/n2c(S)nnc2-c2cccs2)cc1	5.01 µM (inconclusive)
CC(C)OC(=O)c1cc2c(OC[C@@H](O)CNC(C)(C)C)cccc2[nH]1	15.8 µM (inconclusive)
N=C(N)c1ccc(/N=N\c2c(O)ccc3c2[nH]c2ccccc23)cc1	5.01 µM (inconclusive)
CCCCCn1c(=O)c(C(=O)c2ccccc2)nc2ccccc21	28.2 µM (inconclusive)

System: not listed separately
Assay: Luminescence Cell-Based Dose Retest to Confirm Inhibitors of Cancer Stem Cells. [Related pubchem assays (depositor defined):AID2717, AID2721]
Format: functional
Details: Homo sapiens

SMILES	AC50
C1=C(c2sc3ccccc3c2-c2ccc(OCCN3CCOCC3)cc2)CCCC1	2.71 µM (active)
CC(NC(=O)c1ccc(N2CCNCC2)c([N+](=O)[O-])c1)C12CC3CC(CC(C3)C1)C2 (stereo not given)	10.2 µM (active)
C/C(CC(=O)Nc1ccc(Cl)c(C(F)(F)F)c1)=N\NC(=O)c1cc2ccccc2cc1O	8.61 µM (active)
CCCOC(=O)C(=O)NNc1ccccc1	0.95 µM (active)
CCCc1cc(O)nc(SCC(=O)Nc2sc(C(N)=O)c(C)c2C(=O)OCCOC)n1	3.6 µM (active)
CCc1nc(N2CCC(C)CC2)c2oc3ccccc3c2n1	4.63 µM (active)

Molecular target: T2, Streptokinase A (Streptococcus pyogenes serotype M1, UniProt P10520)
T2 sequence (P10520 whole entry): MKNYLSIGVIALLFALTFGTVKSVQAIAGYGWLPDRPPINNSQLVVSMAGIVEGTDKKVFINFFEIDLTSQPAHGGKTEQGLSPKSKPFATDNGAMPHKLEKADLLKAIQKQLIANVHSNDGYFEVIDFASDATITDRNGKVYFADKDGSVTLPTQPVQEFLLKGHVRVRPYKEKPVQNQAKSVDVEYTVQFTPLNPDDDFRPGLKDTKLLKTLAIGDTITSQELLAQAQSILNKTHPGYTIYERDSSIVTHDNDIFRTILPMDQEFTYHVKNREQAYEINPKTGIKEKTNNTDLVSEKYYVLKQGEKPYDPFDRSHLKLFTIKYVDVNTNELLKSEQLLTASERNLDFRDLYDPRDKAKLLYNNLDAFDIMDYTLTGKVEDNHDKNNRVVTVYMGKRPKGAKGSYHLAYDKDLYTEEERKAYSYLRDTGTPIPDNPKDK
Assay: viability-normalized secreted streptokinase activity reduction – plasminogen activation absorbance, OD405, dose response (AID 1914);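 further: secreted streptokinase activity via plasminogen activation per viability signal from cell pellet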
Format: functional, Streptococcus pyogenes M1 GAS
Details: not given

SMILES	EC50
CC(C)(C)c1ccc(CN(Cc2ccco2)Cc2nnnn2C2CCCC2)cc1	12.7 µM (active)
C/C(CC(=O)Nc1ccc(Cl)c(C(F)(F)F)c1)=N\NC(=O)c1cc2ccccc2cc1O	> 150 µM (not active)

Molecular target: T3, RNA-binding protein pos-1 (Caenorhabditis elegans, UniProt G5EF15)
T3 sequence (G5EF15 whole entry): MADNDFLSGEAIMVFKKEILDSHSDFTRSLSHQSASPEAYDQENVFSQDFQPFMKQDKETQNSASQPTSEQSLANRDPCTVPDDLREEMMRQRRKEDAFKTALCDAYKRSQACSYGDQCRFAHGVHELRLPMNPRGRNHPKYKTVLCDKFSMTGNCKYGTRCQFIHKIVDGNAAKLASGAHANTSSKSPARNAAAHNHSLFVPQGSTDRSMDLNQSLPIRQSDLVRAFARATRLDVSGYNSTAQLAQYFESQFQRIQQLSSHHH
Assay: disruptors of C. elegans POS-1 RNA interaction – biochemical, fluorescence polarization, dose response (AID 1964);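 further: purified POS-1 fused to maltose binding protein made in E. coli; potency of compounds blocking POS-1 binding to fluorescent RNA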
Details: not given

SMILES	EC50
C(=N\N=C(\Nc1ccccc1)c1ccccn1)/c1ccccn1	> 300 µM (inconclusive)

System: Streptococcus sp. 'group A'
Assay: Streptococcus pyogenes SK(-)GAS viability under kanamycin – luminescence, BacTiterGlo, confirmation, counter-screen for streptokinase expression inhibitor project, dose response (AID 1900)
Format: functional, organism-based
Details: not given

SMILES	EC50
CC(C)(C)c1ccc(CN(Cc2ccco2)Cc2nnnn2C2CCCC2)cc1	5.71 µM (active)
C/C(CC(=O)Nc1ccc(Cl)c(C(F)(F)F)c1)=N\NC(=O)c1cc2ccccc2cc1O	1.57 µM (active)

Molecular target: Cytochrome P450 2C9 (Homo sapiens, UniProt P11712)
Sequence (P11712 whole entry): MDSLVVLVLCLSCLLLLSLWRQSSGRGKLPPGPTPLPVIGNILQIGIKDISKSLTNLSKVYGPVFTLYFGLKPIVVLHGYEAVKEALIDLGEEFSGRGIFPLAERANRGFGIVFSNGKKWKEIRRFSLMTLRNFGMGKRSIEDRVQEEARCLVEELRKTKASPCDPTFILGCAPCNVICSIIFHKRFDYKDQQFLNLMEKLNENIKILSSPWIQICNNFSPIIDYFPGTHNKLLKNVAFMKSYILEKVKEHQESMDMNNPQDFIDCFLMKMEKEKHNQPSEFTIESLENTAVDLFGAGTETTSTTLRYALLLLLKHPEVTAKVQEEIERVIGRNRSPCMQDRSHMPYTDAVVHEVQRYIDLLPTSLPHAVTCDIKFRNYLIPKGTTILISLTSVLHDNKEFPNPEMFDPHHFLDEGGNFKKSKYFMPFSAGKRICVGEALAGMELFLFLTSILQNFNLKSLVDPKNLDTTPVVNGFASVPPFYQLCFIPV
Details: not given

SMILES	AC50
O=C(Nc1cccc(C(F)(F)F)c1)C1CCCN1S(=O)(=O)c1cccc2cccnc12 (stereo not given)	5.62 µM (inconclusive)
O=C(c1ccc(F)cc1)C1CCN(CCn2c(=S)[nH]c3ccccc3c2=O)CC1 [ALTANSERIN]	25.1 µM (inconclusive)
CC(C)C(NS(=O)(=O)c1cccc2nsnc12)C(=O)N1CCc2ccccc2C1 (stereo not given)	3.55 µM (inconclusive)
CC(CO)(CO)/N=C\c1cc(I)cc(I)c1O	6.31 µM (inconclusive)
CCc1nc(N[C@H](C(=O)O)C(C)CC)c2oc3ccccc3c2n1 (stereo not given in full)	0.00891 µM (inconclusive)
COCCCN1C(=O)C(O)=C(C(=O)c2ccc(OC(C)C)c(C)c2)C1c1ccncc1 (stereo not given)	35.5 µM (inconclusive)

Molecular target: T4, Cytochrome P450 1A2 (Homo sapiens, UniProt P05177);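 further: PubChem cytochrome P450 panel assay, CYP1A2 panel member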
T4 sequence (P05177 whole entry): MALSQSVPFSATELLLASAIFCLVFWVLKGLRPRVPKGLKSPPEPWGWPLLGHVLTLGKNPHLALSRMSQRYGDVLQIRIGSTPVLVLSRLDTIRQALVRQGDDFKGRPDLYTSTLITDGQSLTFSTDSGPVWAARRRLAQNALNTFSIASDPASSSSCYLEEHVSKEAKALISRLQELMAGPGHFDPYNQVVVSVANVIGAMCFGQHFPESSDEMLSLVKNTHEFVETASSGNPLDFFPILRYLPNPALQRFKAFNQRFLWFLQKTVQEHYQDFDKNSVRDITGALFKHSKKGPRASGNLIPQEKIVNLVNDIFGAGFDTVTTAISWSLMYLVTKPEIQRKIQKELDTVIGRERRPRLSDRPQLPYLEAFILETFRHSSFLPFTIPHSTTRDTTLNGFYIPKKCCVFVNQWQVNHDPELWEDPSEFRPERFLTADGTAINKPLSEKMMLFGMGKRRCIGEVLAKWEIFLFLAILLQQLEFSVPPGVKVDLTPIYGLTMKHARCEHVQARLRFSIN
Details: not given

SMILES	AC50
O=C(Nc1cccc(C(F)(F)F)c1)C1CCCN1S(=O)(=O)c1cccc2cccnc12 (stereo not given)	3.16 µM (inconclusive)
O=C(c1ccc(F)cc1)C1CCN(CCn2c(=S)[nH]c3ccccc3c2=O)CC1 [ALTANSERIN]	15.8 µM (inconclusive)
CN(C)CCNC(=O)C(C(=O)c1ccc(F)cc1)n1ccccc1=O (stereo not given)	0.631 µM (inconclusive)
CC(CO)(CO)/N=C\c1cc(I)cc(I)c1O	1.58 µM (inconclusive)
COc1cccc(NC(=O)COC(=O)c2nc3nccc(C)n3n2)c1	17.8 µM (inconclusive)
CS(=O)(=O)Nc1cccc(-c2nc(NCCN3CCOCC3)c3ccccc3n2)c1	25.1 µM (inconclusive)
COc1ccc(CNc2ncncc2-c2c(C)noc2C)c(OC)c1	25.1 µM (inconclusive)
CC(C)OC(=O)c1cc2c(OC[C@@H](O)CNC(C)(C)C)cccc2[nH]1	31.6 µM (inconclusive)
C[C@@H](C(=O)Cc1ccc2ccccc2c1)[C@@H]1C[C@@]1(C)[C@@H](NP(=O)(c1ccccc1)c1ccccc1)c1ccccc1	10 µM (inconclusive)
COc1ccc(CN2C(=O)CN(C3CCCCCC3)C(=O)C2c2ccc(OC)c(OC)c2)cc1 (stereo not given)	35.5 µM (inconclusive)
CC(/C=N/NC(=O)c1cccc([N+](=O)[O-])c1)=C\c1ccccc1	1.78 µM (inconclusive)
N#C/C(=C\c1ccc(N2CCCC2)c([N+](=O)[O-])c1)c1nc2ccccc2[nH]1	11.2 µM (inconclusive)

Molecular target: Cytochrome P450 2C19 (Homo sapiens, UniProt P33261)
Sequence (P33261 whole entry): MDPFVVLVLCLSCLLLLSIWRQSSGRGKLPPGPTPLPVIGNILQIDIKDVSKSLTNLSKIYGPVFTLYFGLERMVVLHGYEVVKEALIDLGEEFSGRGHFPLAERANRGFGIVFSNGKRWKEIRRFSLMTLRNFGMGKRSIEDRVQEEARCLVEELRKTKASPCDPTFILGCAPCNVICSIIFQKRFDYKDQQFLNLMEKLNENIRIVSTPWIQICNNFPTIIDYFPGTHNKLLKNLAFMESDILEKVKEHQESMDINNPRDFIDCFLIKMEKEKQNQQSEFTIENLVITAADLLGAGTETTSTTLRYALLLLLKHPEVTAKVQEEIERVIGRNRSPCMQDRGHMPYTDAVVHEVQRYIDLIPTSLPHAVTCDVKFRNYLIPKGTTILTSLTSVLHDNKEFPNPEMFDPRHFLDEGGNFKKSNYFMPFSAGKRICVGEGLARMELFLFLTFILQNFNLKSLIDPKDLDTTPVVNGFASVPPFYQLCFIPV
Assay: Cytochrome panel assay with activity outcomes. Panel member name: p450-cyp2c19 Compounds with AC50 equal or less than 10 uM are considered active
Format: functional
Details: not given

SMILES	AC50
CCc1nc(N[C@H](C(=O)O)C(C)CC)c2oc3ccccc3c2n1 (stereo not given in full)	inconclusive

Same assay, conditions: read-out: AC50

SMILES	AC50
CC(C)C(NS(=O)(=O)c1cccc2nsnc12)C(=O)N1CCc2ccccc2C1 (stereo not given)	6.31 µM (inconclusive)
COc1cccc(NC(=O)COC(=O)c2nc3nccc(C)n3n2)c1	31.6 µM (inconclusive)
COc1cccc(Cn2c(=O)c(-c3cc(F)cc(F)c3)nc3cnc(N4CCNCC4)nc32)c1	39.8 µM (inconclusive)
Cc1ccc(/C=N/n2c(S)nnc2-c2cccs2)cc1	3.55 µM (inconclusive)
COCCCN1C(=O)C(O)=C(C(=O)c2ccc(OC(C)C)c(C)c2)C1c1ccncc1 (stereo not given)	11.2 µM (inconclusive)
Cc1cc(-c2ccc(Cl)cc2)oc(=O)c1NC(=O)c1ccccc1	3.55 µM (inconclusive)
COCCn1c(=O)c(-c2cccs2)nc2cnc(N3CCNCC3)nc21	25.1 µM (inconclusive)
Oc1ccccc1-c1nnc(-c2ccc(C(F)(F)F)cc2)o1	39.8 µM (inconclusive)

System: Streptococcus
Assay: GAS UMAA2166 growth inhibition – luminescence, BacTiterGlo, counter-screen for streptokinase expression inhibitor project, dose response (AID 1915);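 further: potency for reduction of bacterial viability or growth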
Format: functional, organism-based
Details: not given

SMILES	EC50
CC(C)(C)c1ccc(CN(Cc2ccco2)Cc2nnnn2C2CCCC2)cc1	> 150 µM (not active)
C/C(CC(=O)Nc1ccc(Cl)c(C(F)(F)F)c1)=N\NC(=O)c1cc2ccccc2cc1O	8.14 µM (active)

System: not listed separately
Assay: viability of uninfected HEp-2 cells – cell-based, HTS, cytotoxicity control for RSV inhibitor project, dose response (AID 2410)
Format: functional
Details: human respiratory syncytial virus

SMILES	CC50
CN(CC(=O)Nc1ccc(Cl)cc1)CC(=O)Nc1cccc(Br)c1	16.2 µM (active)
Cc1nc2cc(C(F)(F)F)ccc2n1CCNc1nc(-c2cc(Cl)c(N)c(Cl)c2)cs1	19.7 µM (active)
Cc1cc(N2CCOCC2)nc2ccc(N=C(S)N3CCCCC3C)cc12 (stereo not given)	18.2 µM (active)
CC(NC(=O)c1ccc(N2CCNCC2)c([N+](=O)[O-])c1)C12CC3CC(CC(C3)C1)C2 (stereo not given)	16 µM (active)
O=[N+]([O-])c1ccc(S(=O)(=O)Nc2cccc(-c3ccc(N4CCOCC4)nn3)c2)cc1	> 50 µM (active)
CN=C(S)N1CCN(c2ccc(Cl)c(Cl)c2)CC1	21.3 µM (active)
Cc1cc2c(cc1S(=O)(=O)N1CCN(c3ccc(Cl)cc3)CC1)OCCN2C	41 µM (active)
O=C1c2ccccc2C(=O)N1CCCCN(C(=O)c1cc([N+](=O)[O-])cc([N+](=O)[O-])c1)c1ccc(Cl)cc1	> 50 µM (active)
COCCNC(=S)N/N=C(\C)c1ccc(OC(F)F)cc1	> 50 µM (active)
Cc1nc(N/N=C/c2ccc(O)cc2)c2cnn(-c3ccccc3)c2n1	42.8 µM (active)
C=CCc1ccc(OCCOCCOc2cccc3ccc(C)nc23)c(OC)c1	29.6 µM (active)
